In article PMC10967270, “Intrapulmonary and Systemic Pharmacokinetics of Colistin Following Nebulization of Low-Dose Colistimethate Sodium in Patients with Ventilator-Associated Pneumonia Caused by Carbapenem-Resistant Acinetobacter baumannii” (Antibiotics, 2024):
Like-named read-outs stand apart in the source and are kept apart here. Positions of bridges follow the written chain, without caps; N, C: chain ends. Non-standard residues stand in square brackets, D forms with d. Residues, ends and D or L forms follow the SMILES beside them. *: point of attachment. X1 = CC[C@H](C)CCCCC(=O)*; Dab = NCC[C@H](N)C(=O)O

What was measured:
[1] = Population PK model of colistin in epithelial lining fluid (NONMEM, one-compartment, Weibull absorption); type: in vivo, human; details: ELF
Source text: (§1) The time courses of colistin concentrations in ELF and plasma were best described using one-compartment models with a Weibull absorption process. The following structural PK model described by two differential equations was applied:(1) dA1/dt=−WB×A1 (2) WB=KAMAX×1−e^−RA×time^GAM (3) dA2/dt=WB×A1−CL/V×A2 where A1 and A2 represent the amounts of colistin in ELF and plasma, and WB denotes the Weibull absorption function with parameters KAMMA, RA, and GAM. KAMMA determines the function’s maximum value, often representing the maximum rate of absorption or event occurrence. RA, the shape parameter, controls the rate of change over time, influencing the distribution’s slope and how quickly it increases or decreases. GAM adjusts the time variable’s exponent, controlling the rate of growth or decline over time, thereby affecting the distribution’s asymmetry and indicating the curve’s speed in reaching its peak or declining. CL and V are the total clearance and volume of distribution for colistin, respectively. The estimated CL and V in Table 2 were expressed as CL/fm and V/fm, respectively, where fm represents the fraction of CMS metabolized to colistin, a value that cannot be estimated from our study data. No significant covariates influencing the PK parameters were identified. The estimated PK parameters for the final PK models are presented in Table 2, while individual fit plots for colistin in ELF and plasma can be found in Figure 2 and Figure 3, respectively. Diagnostic goodness-of-fit plots for the final PK model of colistin in ELF and plasma are shown in Supplementary Materials Figures S1 and S2, respectively. […] With the observed 10th, 50th, and 90th percentiles mostly within the 95% confidence intervals of the simulated percentiles, the final PK models effectively explained the observed concentrations and had good predictive performance.
(§2) A population PK analysis of colistin in ELF and plasma was conducted using NONMEM 7.5.0 (ICON Clinical Research LLC, North Wales, PA, USA). The analysis used first-order conditional estimation with interaction (FOCEI) to estimate both observed fixed and unexplained random effect parameters. The FOCEI allows the inter-individual variability (IIV) in the PK parameters to interact with the residual unexplained variability (RUV) in the observed concentrations. The RUV arises from factors such as within-subject variability, assay error, and potential misspecification of the model. ADVAN1 TRANS2 and ADVAN3 TRANS4 from the NONMEM PK model library were used to construct the single- and two-compartment models, respectively. Except for drug inhalation, all PK processes were assumed to follow first-order kinetics. Various absorption models, including zero-order, first-order, Weibull, and transit absorption models, were investigated to describe the absorption processes of colistin.
(§3) The representation of each PK parameter was given by θi = θ × exp(ηi), where θ stands for the typical value of the PK parameter, θi represents an individual PK parameter, and ηi is a random variable associated with IIV. It was assumed that IIV follows a normal distribution with a mean of 0 and a variance of ω^2. For RUV, which was assumed to be normally distributed with a mean of 0 and a variance of σ^2; additive, proportional, and combined additive and proportional error models were investigated.
(§4) Models were assessed and chosen based on NONMEM objective function values (OFVs), the precision of parameter estimates (relative standard errors), the shrinkage of IIV, and diagnostic goodness-of-fit plots. In the log-likelihood ratio test, if the decrease in OFV (ΔOFV) is greater than 3.84 for models with one additional degree of freedom or greater than 5.99 for models with two additional degrees of freedom, it is considered statistically significant at p < 0.05, indicating an improvement in the model. […]

[2] = Population PK model of colistin in plasma (NONMEM, one-compartment, Weibull absorption); type: in vivo, human
Source text: as §1, §2, §3, §4

[3] = cited from earlier work; for Maximum ELF concentration, median (IQR): 2 MIU CMS
Description: The observed median (IQR) peak colistin concentration was 21,950 (10,440–28,389) μg/L in the ELF, while that in plasma was 43.51 (14.23–85.78) μg/L. Boisson et al. reported that, regardless of concentration, a significant adsorption of CMS to the mini-BAL device was not observed in studies utilizing the mini-BAL device. They also noted that non-specific adsorption was not significant at a concentration of 6 mg/L. Consequently, it appears from our study that there was no significant adsorption of CMS [23]. […] These studies measured concentrations of both CMS and colistin in the ELF, assuming equal V/fm for CMS and colistin. In our study, the V/fm of colistin in plasma was estimated at 67.4 L, which is much greater than the 13.7 L reported in Boisson et al.. Gkoufa et al. fixed this distribution volume at 13.7 L based on Boisson et al.. The CL/fm of colistin ... || The PK/PD index for colistin is the area under the free colistin concentration-–time curve at steady state over 24 h divided by the pathogen minimum inhibitory concentration (fAUC/MIC). Since we were unable to obtain MIC values for A. baumannii, we evaluated the relationship between the PK and PD of colistin by comparing the fAUC of each patient in accordance with their clinical outcomes and microbiological outcomes. AUC was calculated by dividing the daily dose by patient, which was the individual post hoc Bayesian estimate of the developed PK model. The bioavailability of colistin ...

[4] = cited from earlier work
Description: We investigated whether the fAUC values of individual patients were associated with clinical or microbiological outcomes (Table 3). Using individual estimates of CL derived from the final PK model, we calculated the steady-state fAUC for each patient when a total of 3.75 MIU (=300 mg CMS = 112.5 mg CBA) was administered at 6 h intervals four times a day, using the formula AUC = DOSE/CL. The unbound fraction of colistin was assumed to be 10% [25] in the ELF based on the study by Gkoufa et al. and 34% in the plasma based on the study by Mohamed et al.. Gkoufa et al. presented concentrat ...

A. baumannii = details: murine lung infection model; cited from earlier work

For `CC[C@H](C)CCCCC(=O)N[C@@H](CCN)C(=O)N[C@H](C(=O)N[C@@H](CCN)C(=O)N[C@H]1CCNC(=O)[C@H]([C@@H](C)O)NC(=O)[C@H](CCN)NC(=O)[C@H](CCN)NC(=O)[C@H](CC(C)C)NC(=O)[C@@H](CC(C)C)NC(=O)[C@H](CCN)NC1=O)[C@@H](C)O` [colistin] (X1-[Dab]T[Dab][Dab][Dab][dL]L[Dab][Dab]T; lactam 4-C), the “CL/fm, bootstrap median (95% CI)” value ([1]; 2000 bootstrap samples) was 0.529 (0.352–0.77) mL/min, the “KAMAX, bootstrap median (95% CI)” value ([1]; 2000 bootstrap samples) was 0.533 (0.335–0.973) and the “V/fm, bootstrap median (95% CI)” value ([1]; 2000 bootstrap samples) was 24.3 (11.0–46.7) mL. The “KAMAX (maximum rate of absorption), estimate” value ([1]; Weibull absorption) was 0.531, the “CL/fm, estimate” value ([1]; final PK model) was 0.541 mL/min and the “V/fm, estimate” value ([1]; final PK model) was 23.0 mL. The “CL/fm, bootstrap median (95% CI)” value ([2]; 2000 bootstrap samples) was 26.1 (6.66–67) mL/min, the “KAMAX, bootstrap median (95% CI)” value ([2]; 2000 bootstrap samples) was 1.20 (0.912–1.59) and the “V/fm, bootstrap median (95% CI)” value ([2]; 2000 bootstrap samples) was 67.2 (46.6–93) L. For the same molecule, the “KAMAX (maximum rate of absorption), estimate” value ([2]; Weibull absorption) was 1.20, the “CL/fm, estimate” value ([2]; final PK model) was 26.3 mL/min and the “V/fm, estimate” value ([2]; final PK model) was 67.4 L. For the same molecule, the “Maximum ELF concentration, median (IQR)” value ([3]; jet nebulizer) was 7.4 (6.2–10.3) mg/L, the “Maximum ELF concentration, median (IQR)” value ([3]; vibrating mesh nebulizer) was 10.4 (4.7–22.6) mg/L and the “CL/fm of colistin in plasma” value ([3]; Boisson et al.) was 53.1 mL/min. For the same molecule, the “V/fm of colistin in plasma” value ([3]; Boisson et al.) was 13.7 L, the “V/fm of colistin in the ELF” value ([3]; Boisson et al.) was 1.2 mL and the “CL/fm of colistin in plasma” value ([3]; Gkoufa et al.) was 128 mL/min. The “V/fm of colistin in the ELF” value ([3]; Gkoufa et al.) was 14.5 mL, the Bioavailability of colistin ([3]; assumed from the literature to calculate the PK/PD index) was 9% and the “Intercompartmental CL/fm” value ([3]; between ELF and plasma, Gkoufa et al.) was 0.372 mL/min. The “Unbound fraction of colistin in the ELF” value ([4]; assumed, rounded from 0.099 used in simulations by Gkoufa et al.) was 10%, the “Unbound fraction of colistin in plasma, median” value ([4]; equilibrium dialysis, Mohamed et al.) was 34% and the “fAUC/MIC target values for a 2 log10 kill” value (A. baumannii) was 22.5–95.0 mg/L·h.
